Earlier results on two substances are cited in US20030083286A1, “Bioadhesive compositions and methods for enhanced intestinal drug absorption” (priority 2001, published 2003).

Like-named read-outs stand apart in the source and are kept apart here. In the oligonucleotide strings, read from the 5' end, every base follows the letter of its sugar. An asterisk marks phosphorothioate; unmarked linkages are phosphodiester. Other units and linkages are bracketed, terminal groups are in braces. A string of capitals states the bases alone. d = 2'-deoxy (DNA)

For data set [1], the system named is ICAM-1.
Data set [2] concerns ICAM-1. The settings on record: C8161 human melanoma cells.
Assay in data set [3]: not given
This is another data set of the same source.

For data set [4], the system named is C8161 cells.
In data set [5] the test system is ICAM-1 over HLA-A and HLA-B. The settings on record: versus HLA-A and HLA-B.

“ISIS 2302: 2′-deoxyoligonucleotide, phosphorothioate backbone, 5′-GCC-CAA-GCT-GGC-ATC-CGT-CA-3′ (SEQ ID NO:1), targeted to 3′-UTR of human ICAM-1 gene (antisense dG*dC*dC*dC*dA*dA*dG*dC*dT*dG*dG*dC*dA*dT*dC*dC*dG*dT*dC*dA)”: the ICAM-1 expression entry in data set [1] (human epidermal carcinoma cells (A431)), in data set [1] (human keratinocytes), in data set [1] (human lung carcinoma cells (A549)) and in data set [1] (human umbilical vein cells) was “inhibit ICAM-1 expression” each time. In data set [2], the “ICAM-1 expression (mRNA levels, northern blot)” value was “markedly reduced ICAM-1 expression”. Also, the “anti-inflammatory effects in animal testing” value (Crohn's disease, rheumatoid arthritis, psoriasis, ulcerative colitis, kidney transplant rejection) was “strong anti-inflammatory effects”. For the same substance, the “biological activity in animal models of inflammatory disease” value (in vivo) was “significant biological activity”. Also, in data set [3] (humans), the “activity against Crohn's disease in humans” value is on record as “activity against Crohn's disease”. The “steroid-sparing effect on treated subjects” value in data set [3] (humans, five months post-treatment weaned from steroids and in remission) is given as “statistically significant steroid-sparing effect”. Besides, the safety in humans entry in data set [3] (in vivo) is on record as “good safety”. Also, the “enhanced metastatic ability of C8161 cells resulting from TNF-α treatment” value in data set [4] (TNF-α treated cells) is “eliminated the enhanced metastatic ability”. Also, the “metastatic potential of C8161 cells” value in data set [4] (in vivo) is listed as “decreased the metastatic potential”. In addition, in data set [5], the “specificity for target ICAM-1 over other potential nucleic acid targets” value is “demonstrated specificity”.

With “ISIS 1939: 2′-oligodeoxynucleotide, phosphorothioate backbone, 5′-CCC-CCA-CCA-CTT-CCC-CTC-TC-3′ (SEQ ID NO:2), targeted to 3′-UTR of human ICAM-1 gene (antisense CCCCCACCACTTCCCCTCTC; DNA, all phosphorothioate, methylation of C not given here)”, the “ICAM-1 expression (mRNA levels, northern blot)” value in data set [2] was “markedly reduced ICAM-1 expression”.
